In one experiment the target is Cannabinoid receptor 2 (Homo sapiens, UniProt P34972). The experiment can be described thus: Displacement of [3H]CP-55940 from human cannabinoid CB2 receptor expressed in CHO cells. Type of experiment: cell-based.
In a further experiment the test system is Rattus norvegicus. Nature of the experiment: Inhibition of CP-55940-induced hypotension in po dosed rat. Type of experiment: functional. To be noted: read-out: ID50 (the source's name).
Experiment [1] deals with T1, Cannabinoid receptor 1 (Homo sapiens, UniProt P21554). Nature of the experiment: Displacement of [3H]CP-55940 from human cannabinoid CB1 receptor expressed in CHO cells. The class given is cell-based.
The target of experiment [2] is T1, Cannabinoid receptor 1. The experiment can be described thus: Antagonist activity at human cannabinoid CB1 receptor expressed in CHO cells assessed as inhibition of CP-55940-induced [3H]arachidonic acid release. Type of experiment: functional, cell-based. The note with it: read-out: pA2 (converted).

The record followed here is ChEMBL document CHEMBL1154936, “Synthesis, SAR and intramolecular hydrogen bonding pattern of 1,3,5-trisubstituted 4,5-dihydropyrazoles as potent cannabinoid CB(1) receptor antagonists” (Bioorg Med Chem Lett, 2010).

A word on the Ki: it is a measure of affinity in units of concentration, obtained from inhibition or displacement. Higher therefore signals lower affinity.

Molecules are shown by their SMILES.

Sequence of Cannabinoid receptor 2 (P34972 whole entry): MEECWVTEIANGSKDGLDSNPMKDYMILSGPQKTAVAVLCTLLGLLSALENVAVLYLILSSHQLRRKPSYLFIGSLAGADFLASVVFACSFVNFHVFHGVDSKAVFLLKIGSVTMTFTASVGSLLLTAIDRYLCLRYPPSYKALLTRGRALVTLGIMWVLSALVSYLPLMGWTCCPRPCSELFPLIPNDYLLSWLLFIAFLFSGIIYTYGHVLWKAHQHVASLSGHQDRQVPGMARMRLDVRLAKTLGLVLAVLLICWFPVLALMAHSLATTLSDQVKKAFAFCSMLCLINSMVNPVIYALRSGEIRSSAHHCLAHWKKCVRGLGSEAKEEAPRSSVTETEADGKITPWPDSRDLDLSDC
T1 sequence (P21554 whole entry): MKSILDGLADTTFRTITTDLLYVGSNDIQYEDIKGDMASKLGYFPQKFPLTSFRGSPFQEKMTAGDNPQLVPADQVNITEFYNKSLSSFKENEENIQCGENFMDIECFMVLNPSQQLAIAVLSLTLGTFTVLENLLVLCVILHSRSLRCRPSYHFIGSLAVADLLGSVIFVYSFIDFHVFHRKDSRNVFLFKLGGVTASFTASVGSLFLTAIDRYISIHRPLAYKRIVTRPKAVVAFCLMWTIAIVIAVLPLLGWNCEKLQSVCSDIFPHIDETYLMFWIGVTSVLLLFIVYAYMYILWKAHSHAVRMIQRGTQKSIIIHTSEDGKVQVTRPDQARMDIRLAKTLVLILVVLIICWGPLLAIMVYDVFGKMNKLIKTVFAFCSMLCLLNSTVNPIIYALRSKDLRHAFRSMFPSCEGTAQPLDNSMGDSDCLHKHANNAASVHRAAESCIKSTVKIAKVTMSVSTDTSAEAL

With `CNC(=NS(=O)(=O)N1CCC(C(F)(F)F)CC1)N1C[C@H](c2ccccc2)C(c2ccc(Cl)cc2)=N1`, the Ki on Cannabinoid receptor 2 came to 0.305 µM; at Cannabinoid receptor 1 [1], 0.0047 µM. In the experiment on Rattus norvegicus, the ED50 was 2 mg/kg. Besides, the Kb at Cannabinoid receptor 1 [2] was 0.000251 µM.

In the case of `CN/C(=N\S(=O)(=O)c1ccc(Cl)cc1)N1CC(c2ccccc2)C(c2ccc(Cl)cc2)=N1` (stereo not drawn) [RAC-IBIPINABANT], the ED50 in the experiment with Rattus norvegicus stood at 15 mg/kg.

As to `CN/C(=N\S(=O)(=O)N1CCC(F)(F)CC1)N1CC(c2ccccc2)C(c2ccc(Cl)cc2)=N1` (stereo not given), in the experiment with Rattus norvegicus, the ED50 was found to be 23 mg/kg.

As to `CN/C(=N\S(=O)(=O)c1ccc(Cl)cc1)C1=NN(c2ccc(Cl)cc2Cl)C(c2ccccc2)C1` (stereo not given), the Ki at Cannabinoid receptor 2 is 0.248 µM; at Cannabinoid receptor 1 [1] it was 0.037 µM. Also, in the experiment on Rattus norvegicus, the ED50 is above 30 mg/kg. In addition, on Cannabinoid receptor 1 [2], the Kb was 0.001 µM.

As for `CNC(=NS(=O)(=O)N1CCCCC1)C1=NN(c2ccc(Cl)cc2)C(c2ccccc2)C1` (stereo not given), the values for the Ki on Cannabinoid receptor 2 and at Cannabinoid receptor 1 [1] were 1.09 µM and 0.141 µM, respectively. Besides, the ED50 in the experiment with Rattus norvegicus was above 30 mg/kg. For the same molecule, the Kb on Cannabinoid receptor 1 [2] is 0.0126 µM.

For the molecule `CNC(=NS(=O)(=O)N1CCC(C(F)(F)F)CC1)N1C[C@@H](c2ccccc2)C(c2ccc(Cl)cc2)=N1`, the inhibition constant Ki on Cannabinoid receptor 2 is above 1 µM; on Cannabinoid receptor 1 [1] it was 0.14 µM. In addition, the ED50 in the experiment with Rattus norvegicus is above 30 mg/kg. The Kb on Cannabinoid receptor 1 [2] is 0.0501 µM.

On to `CN/C(=N\S(=O)(=O)c1ccc(Cl)cc1)C1=NN(c2ccc(Cl)cc2)C(c2ccccc2)C1` (stereo not given), for which the inhibitory constant (Ki) on Cannabinoid receptor 2 was above 1 µM; at Cannabinoid receptor 1 [1] it was 0.084 µM. Moreover, the ED50 in the experiment with Rattus norvegicus is above 30 mg/kg. For the same molecule, the Kb at Cannabinoid receptor 1 [2] is 0.00398 µM.

For the molecule `CNC(=NS(=O)(=O)N1CCC(C(F)(F)F)CC1)C1=NN(c2ccc(Cl)cc2)[C@H](c2ccccc2)C1`, the Ki on Cannabinoid receptor 2 was above 1 µM; on Cannabinoid receptor 1 [1], 0.058 µM. Besides, the Kb at Cannabinoid receptor 1 [2] was 0.00631 µM.

As to `CN=C(NS(=O)(=O)N1CCC(F)(F)CC1)C1=NN(c2ccc(Cl)cc2)C(c2ccccc2)C1` (stereo not given), the figures for the inhibition constant (Ki) on Cannabinoid receptor 2 and on Cannabinoid receptor 1 [1] were above 1 µM and 0.0388 µM, respectively. In addition, the ED50 with Rattus norvegicus is 9 mg/kg. The Kb on Cannabinoid receptor 1 [2] is 0.000794 µM.

Take `CN/C(=N\S(=O)(=O)c1ccc(Cl)cc1)N1C[C@H](c2ccccc2)C(c2ccc(Cl)cc2)=N1` [IBIPINABANT]: the ED50 in the experiment on Rattus norvegicus came to 5.5 mg/kg.

Take `CNC(=NS(=O)(=O)N1CCC(F)(F)CC1)N1C[C@H](c2ccccc2)C(c2ccc(Cl)cc2)=N1`: the Ki on Cannabinoid receptor 2 is above 1 µM; on Cannabinoid receptor 1 [1], 0.042 µM. For the same molecule, in the experiment on Rattus norvegicus, the ED50 turned out to be 6 mg/kg. The Kb on Cannabinoid receptor 1 [2] is 0.001 µM.

As to `CNC(=NS(=O)(=O)N1CCC(F)(F)CC1)N1C[C@@H](c2ccccc2)C(c2ccc(Cl)cc2)=N1`, the results for the Ki at Cannabinoid receptor 2 and on Cannabinoid receptor 1 [1] were above 1 µM and 0.463 µM, respectively. Also, in the experiment on Rattus norvegicus, the ED50 is above 30 mg/kg. The Kb on Cannabinoid receptor 1 [2] is 0.398 µM.

Regarding `CN/C(=N\S(=O)(=O)N1CCC(F)CC1)C1=NN(c2ccc(Cl)cc2)C(c2ccccc2)C1` (stereo not given), the figures for the Ki on Cannabinoid receptor 2 and at Cannabinoid receptor 1 [1] were above 1 µM and 0.055 µM, respectively. Further, in the experiment on Rattus norvegicus, the ED50 was above 30 mg/kg. The Kb at Cannabinoid receptor 1 [2] was 0.00398 µM.

In the case of `CNC(=NS(=O)(=O)N1CCC(C(F)(F)F)CC1)C1=NN(c2ccc(Cl)cc2)[C@@H](c2ccccc2)C1`, the inhibitory constant (Ki) on Cannabinoid receptor 2 turned out to be 0.584 µM; at Cannabinoid receptor 1 [1], 0.002 µM.

For the molecule `CN/C(=N\S(=O)(=O)c1ccc(C(F)(F)F)cc1)C1=NN(c2ccc(Cl)cc2Cl)C(c2ccccc2)C1` (stereo not given), the Ki at Cannabinoid receptor 2 stood at 0.179 µM; on Cannabinoid receptor 1 [1] it was 0.0113 µM. Also, the ED50 in the experiment on Rattus norvegicus is above 30 mg/kg. Besides, the Kb on Cannabinoid receptor 1 [2] was 0.00251 µM.

As for `CN/C(=N\S(=O)(=O)N1CCC(C(F)(F)F)CC1)N1CC(c2ccccc2)C(c2ccc(Cl)cc2)=N1` (stereo not given), the inhibitory constant (Ki) on Cannabinoid receptor 2 was above 1 µM; at Cannabinoid receptor 1 [1] it was 0.0145 µM. Also, the Kb on Cannabinoid receptor 1 [2] was 0.000398 µM.

With `CNC(=NS(=O)(=O)N1CCC(F)CC1)N1CC(c2ccccc2)C(c2ccc(Cl)cc2)=N1` (stereo not given), the Ki at Cannabinoid receptor 2 was above 1 µM; at Cannabinoid receptor 1 [1] it was 0.0075 µM. Further, the ED50 in the experiment with Rattus norvegicus is above 30 mg/kg. The Kb on Cannabinoid receptor 1 [2] was 0.001 µM.

As to `CN/C(=N\S(=O)(=O)N1CCC(F)(F)CC1)C1=NN(c2ccc(Cl)cc2)[C@@H](c2ccccc2)C1`, the results for the inhibitory constant (Ki) on Cannabinoid receptor 2 and at Cannabinoid receptor 1 [1] were above 1 µM and 0.0092 µM, respectively. The ED50 in the experiment on Rattus norvegicus turned out to be 5 mg/kg. The Kb on Cannabinoid receptor 1 [2] was 0.00158 µM.

Take `CN/C(=N\S(=O)(=O)N1CCCCC1)N1C[C@H](c2ccccc2)C(c2ccc(Cl)cc2)=N1`: the ED50 with Rattus norvegicus was 8 mg/kg.

In the case of `CN/C(=N\S(=O)(=O)N1CCC(F)(F)CC1)C1=NN(c2ccc(Cl)cc2)[C@H](c2ccccc2)C1`, the Ki on Cannabinoid receptor 2 was above 1 µM; at Cannabinoid receptor 1 [1], 0.28 µM. In addition, the ED50 with Rattus norvegicus is above 30 mg/kg. Besides, the Kb at Cannabinoid receptor 1 [2] was above 0.2 µM.

Consider `CN/C(=N\S(=O)(=O)c1ccc(F)cc1)C1=NN(c2ccc(Cl)cc2)C(c2ccccc2)C1` (stereo not given), for which the values for the Ki at Cannabinoid receptor 2 and at Cannabinoid receptor 1 [1] were above 1 µM and 0.0217 µM, respectively. Also, the ED50 in the experiment with Rattus norvegicus is 30 mg/kg. On Cannabinoid receptor 1 [2], the Kb was 0.01 µM.

Turning to `CN/C(=N\S(=O)(=O)c1cccc(Cl)c1)C1=NN(c2ccc(Cl)cc2Cl)C(c2ccccc2)C1` (stereo not given), the results for the inhibition constant Ki at Cannabinoid receptor 2 and at Cannabinoid receptor 1 [1] were 0.33 µM and 0.053 µM, respectively. Besides, in the experiment with Rattus norvegicus, the ED50 is above 30 mg/kg. Moreover, on Cannabinoid receptor 1 [2], the Kb was 0.00501 µM.

`CN/C(=N\S(=O)(=O)N1CCC(C(F)(F)F)CC1)C1=NN(c2ccc(Cl)cc2)C(c2ccccc2)C1` (stereo not given): the inhibition constant (Ki) stood at 0.606 µM on Cannabinoid receptor 2 and 0.0076 µM on Cannabinoid receptor 1 [1]. The Kb at Cannabinoid receptor 1 [2] is 0.000398 µM.
